Measured values reported in US4572916A, “Tablets” (priority 1979, dated 1986).
In brackets after ≈: the same amount, converted by molar mass. Entries after “also recorded” stand apart in the source; their conditions may differ.

Columns and labels:
[1] = Flowability: flow of 100 g tablet mix through a 3/8 inch orifice funnel; assay type: physicochemical; details: for Time for 100 g of the tablet mix to flow through the 3/8 inch orifice funnel: no vibration, "No flow" = unable to flow completely without agitation
[2] = Tablets made using a 1/4 inch flat face punch; assay type: physicochemical; details: Example 6, aspirin tablets; for Tablet making results: 1/4 inch flat face punch
Description: (a) The aspirin was mixed with the carrier under test, taking care to avoid moisture pick-up. The flavour was added to the starch with thorough mixing. The magnesium stearate was then added to the starch and this combination blended, with agitation, with the aspirin-carrier mix. (c) Tablets were made using a 1/4 inch flat face punch with the following results: […]

[3] = Solubility in water of isomaltulose; assay type: physicochemical
[4] = Viscosity of isomaltulose solution in water; assay type: physicochemical; details: H2O
[5] = Acid hydrolysis of isomaltulose; assay type: physicochemical; details: 90 h at 58° C. in 2M HCl
[6] = Reducing power of isomaltulose relative to glucose; assay type: physicochemical
[7] = Equilibrium relative humidity / water content of isomaltulose; assay type: physicochemical; details: 80% and 22° C.
[8] = Sweetness and taste of isomaltulose
[9] = Tablet formation, integrity and fines during tabletting and handling; assay type: physicochemical
Description: 50 g isomaltulose, 4 g gum arabic, 1 g magnesium stearate and 13 g saccharin were dry mixed, giving a flowable tabletting powder. Tablets were formed by direct compression of the powder. […]

[10] = Tablet weight; assay type: physicochemical; details: Example 6, aspirin tablets
Description: (d) The tablet weights were:

[11] = Tablet hardness: % weight loss on vibration in a container for 1 hour; assay type: physicochemical
Description: (e) Tablet hardness was then assessed. For an objective test, the tablets were vibrated in a container for 1 hour.

[12] = system: Streptococcus mutans
[13] = Tablets made using a 1/4 inch flat face punch; assay type: physicochemical; details: Example 7, ascorbic acid tablets, in words
[14] = system: enzyme complex in the human intestine; details: literature clinical / in vitro studies (Holzen); cited from earlier work

O=C[C@H](O)[C@@H](O)[C@H](O)[C@H](O)CO [Dextrose]
Flowability, 100 g through 3/8" orifice, no agitation ([1]; Example 7, ascorbic acid mix): Agitation required

OC[C@H]1OC(O)[C@H](O)[C@@H](O)[C@@H]1O (stereo partly shown) [Anhydrous dextrose, reference compound]
Time for 100 g of the tablet mix to flow through the 3/8 inch orifice funnel ([1]; Example 6, aspirin mix): No flow
Tablet making results [2]: As (iv)

OC[C@H]1O[C@@](CO)(O[C@H]2O[C@H](CO)[C@@H](O)[C@H](O)[C@H]2O)[C@@H](O)[C@@H]1O [Sucrose]
Flowability, 100 g through 3/8" orifice, no agitation ([1]; Example 7, ascorbic acid mix): Agitation required

OC[C@H]1O[C@H](OC[C@H]2OC(O)(CO)[C@@H](O)[C@@H]2O)[C@H](O)[C@@H](O)[C@@H]1O (stereo partly drawn) [Isomaltulose, 6-O-(αglucopyranosyl)-D-fructofuranose]
solubility in water compared with lactose ([3]; in words, versus lactose): better solubility in water than lactose
solubility ([3]; water, 30° C., H2O, read-out: solubility at 30° C., H2 O): 460 mg/mL (≈ 1340 mM)
viscosity at 25° C., 50% w/v, H2 O [4]: 6 cp
degraded at 90 h [5]: 40%
reducing power [6]: 58-62 % of that of glucose
water content at 80% equilibrium relative humidity and 22 °C [7]: 25-32 % water
taste ([8]; in words): pleasant, not very sweet, reasonably bland taste
sweetness (relative to sucrose sweetness at 7% w/v in water) ([8]; relative to sucrose, 7% w/v in water): 0.37
binding power when formed into tablets ([9]; in words): unusually good binding power
fines during handling ([9]; tablets with isomaltulose as diluent versus comparable lactose tablets): often show less tendency to generate fines during handling
flowability, comparison of carriers ([1]; Example 6, aspirin mix, in words): comparable with the specially prepared products Dipac and Emdex, and better than the lactose, icing sugar or anydrous dextrose
Time for 100 g of the tablet mix to flow through the 3/8 inch orifice funnel ([1]; Example 6, aspirin mix): 38 s
Flowability, 100 g through 3/8" orifice, no agitation ([1]; Example 7, ascorbic acid mix): 43 s
flowability ([1]; Example 7, ascorbic acid mix, in words): performed well on flowability
Tablet making results [2]: Tablets successfully made; also recorded: Released from die easily; also recorded: Good shiny appearance; also recorded: Good integrity
tablet making, comparison of carriers ([2]; in words): comparable with the Dipac and Emdex, and superior to the other carriers
tablet weights [10]: 151 mg
% weight loss on vibration (tablet hardness) ([11]; Example 6, aspirin tablets, vibrated 1 hour): 3.2%
Weight loss on vibration for 1 hour ([11]; Example 7, ascorbic acid tablets): 1.8%
tablet hardness ([11]; Example 7, ascorbic acid tablets, in words): not so well on tablet hardness; also recorded: not as hard as with the specially formulated carriers
dental plaque formation [12]: little if any dental plaque is formed
metabolism by Streptococcus mutans ([12]; preliminary studies): metabolized by Streptococcus mutans
tablet quality [13]: shiny, hard and had good appearance; also recorded: clearly superior to the dextrose, lactose and sucrose
fate of the constituent monosaccharides (fructose and glucose) [14]: adsorbed, metabolized and otherwise behave as fructose and glucose derived from sucrose
hydrolysis by an enzyme complex in the human intestine [14]: readily hydrolyzed

OC[C@H]1O[C@@H](O[C@H]2[C@H](O)[C@@H](O)C(O)O[C@@H]2CO)[C@H](O)[C@@H](O)[C@H]1O (stereo partly shown) [Lactose, reference compound]
tablet quality / tablet formation ([9]; Example 4(i), direct compression with gum arabic, saccharin tablets): not possible to produce coherent tablets
tablet formation ([9]; Example 4(ii), direct compression without binder, saccharin tablets): Tablets could not be made
Time for 100 g of the tablet mix to flow through the 3/8 inch orifice funnel ([1]; Example 6, aspirin mix): No flow
Flowability, 100 g through 3/8" orifice, no agitation ([1]; Example 7, ascorbic acid mix): Agitation required
Tablet making results [2]: Tablet machine prone to sticking
